The text below walks through data of patent US20110046147A1, “17BETA-HYDROXYSTEROID DEHYDROGENASE TYPE 1 INHIBITORS FOR THE TREATMENT OF HORMONE-RELATED DISEASES” (UNIVERSITAT DES SAARLANDES, priority 2007, published 2011).

In one experiment the target is T1, 17β-HSD2 (Homo sapiens, UniProt P37059).
T1 construct: from tissue; host or cells: human placenta, microsome fraction
T1 sequence (P37059 1-387): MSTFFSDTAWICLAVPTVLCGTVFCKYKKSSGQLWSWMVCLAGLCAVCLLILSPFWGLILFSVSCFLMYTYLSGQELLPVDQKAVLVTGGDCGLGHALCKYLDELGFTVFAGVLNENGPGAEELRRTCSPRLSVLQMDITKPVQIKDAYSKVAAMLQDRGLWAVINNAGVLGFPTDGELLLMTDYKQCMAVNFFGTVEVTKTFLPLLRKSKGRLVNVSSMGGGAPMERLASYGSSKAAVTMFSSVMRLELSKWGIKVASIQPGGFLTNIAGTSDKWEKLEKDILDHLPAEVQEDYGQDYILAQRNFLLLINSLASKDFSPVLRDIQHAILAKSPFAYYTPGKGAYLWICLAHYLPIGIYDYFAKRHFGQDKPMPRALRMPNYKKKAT
In words: Inhibition of 17β-HSD2 (estradiol to estrone, radio-HPLC). The format is biochemical. The settings on record: human placenta microsome fraction, 500 nM estradiol, NAD+ 1500 μM. The protocol:
Determination of the inhibitory activity of the potential inhibitors: Inhibition of 17β-HSD1 and 17β-HSD2: In both cases, human placenta served as the enzyme source (Lin, S.-X. et al., J. Biol. Chem., 267: 16182-16187 (1992)).
In the 17β-HSD2 test, the natural cosubstrate NAD^+ is employed at a final concentration of 1500 μM. The microsome fraction is diluted in test buffer, so that a control conversion of 20 to 30% results (about 1:350). As the substrate, estradiol in a final concentration of 500 nM is used, of which 3 nM is tritiated. 2,4,6,7-[^3H]estradiol is also purchased from Perkin-Elmer, Boston. The inhibitor is added as a solution in DMSO (control: pure DMSO without inhibitor; the final concentration of DMSO in the assay is […]). After the addition of the substrate, incubation is performed at 37° C. for 20 minutes. The reaction is quenched by the addition of HgCl2 (final concentration of HgCl2: 0.166 mM).
(§1) After the reaction, the substrate and product are extracted by partitioning with ether, separated by chromatography (HPLC) and quantified by means of radiodetection.

Another experiment deals with T2, estrogen receptor α (Homo sapiens, UniProt P03372).
T2 sequence (P03372 1-595): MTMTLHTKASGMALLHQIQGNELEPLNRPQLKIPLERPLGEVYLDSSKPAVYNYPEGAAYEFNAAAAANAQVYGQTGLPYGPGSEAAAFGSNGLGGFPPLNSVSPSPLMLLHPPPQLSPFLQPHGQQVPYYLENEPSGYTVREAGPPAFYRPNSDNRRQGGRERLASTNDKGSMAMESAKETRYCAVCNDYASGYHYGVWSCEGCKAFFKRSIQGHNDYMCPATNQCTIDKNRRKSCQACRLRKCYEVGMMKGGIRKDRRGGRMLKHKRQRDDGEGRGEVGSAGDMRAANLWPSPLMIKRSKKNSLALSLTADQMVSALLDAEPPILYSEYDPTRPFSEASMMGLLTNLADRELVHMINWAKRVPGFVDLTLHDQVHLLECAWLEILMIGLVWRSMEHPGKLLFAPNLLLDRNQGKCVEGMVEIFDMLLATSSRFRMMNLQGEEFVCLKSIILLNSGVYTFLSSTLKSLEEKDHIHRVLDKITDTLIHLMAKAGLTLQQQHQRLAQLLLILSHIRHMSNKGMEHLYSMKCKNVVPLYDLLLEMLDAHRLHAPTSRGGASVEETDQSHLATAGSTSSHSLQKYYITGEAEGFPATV
In words: Affinity for the estrogen receptor α (RBA). Type of experiment: binding. The settings on record: data not stated. How it is done: Slight changes were made: The respective inhibitor was incubated at RT for 2 h with shaking.
The receptor affinities are established as RBA (relative binding affinity) values. The RBA value of the reference estradiol is set to 100%.

In the next experiment the target is T3, 17β-HSD1 (Homo sapiens, UniProt P14061).
T3 construct: In both cases, human placenta served as the enzyme source; from tissue; host or cells: human placenta
T3 sequence (P14061 1-328): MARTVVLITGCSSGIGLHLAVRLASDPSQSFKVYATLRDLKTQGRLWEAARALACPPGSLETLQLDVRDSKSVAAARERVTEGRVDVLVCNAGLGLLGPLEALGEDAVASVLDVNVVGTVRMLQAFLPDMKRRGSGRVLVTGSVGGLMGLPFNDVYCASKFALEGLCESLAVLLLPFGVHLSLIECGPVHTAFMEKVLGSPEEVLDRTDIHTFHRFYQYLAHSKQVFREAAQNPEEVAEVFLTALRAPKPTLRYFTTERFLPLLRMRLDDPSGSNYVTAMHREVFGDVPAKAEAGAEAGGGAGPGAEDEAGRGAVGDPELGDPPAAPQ
In words: Inhibition of 17β-HSD1 (estrone to estradiol, radio-HPLC). Type of experiment: biochemical. The settings on record: for IC50: human placenta enzyme, 500 nM estrone, NADH 500 μM. The protocol: In the 17β-HSD1 test, NADH is employed as a cosubstrate at a final concentration of 500 μM in order to avoid the product inhibition occurring with NADPH. The enzyme preparation is diluted with test buffer to such an extent that the control conversion is 10 to maximally 20% (about 1:650). As the substrate, estrone in a final concentration of 500 nM is used, of which 3 nM is tritiated. 2,4,6,7-[^3H]estrone is purchased from Perkin-Elmer, Boston. The inhibitor is added as a solution in DMSO (control: pure DMSO without inhibitor; the final concentration of DMSO in the assay is 1% in all cases).
as §1

The target of the next experiment is T4, CYP2C19 (Homo sapiens, UniProt P33261).
T4 construct: purchased Becton Dickinson GmbH (Heidelberg)
In words: Inhibition of hepatic CYP enzymes: CYP2C19. The settings on record: read-out: CYP2C19 IC50 (mean ± SD). The format is biochemical. The text has this:
(§2) Drug interactions (inhibition of hepatic CYP enzymes): The inhibition of six human hepatic cytochrome P450 enzymes by selected compounds was examined by means of the kit supplied by Becton Dickinson GmbH (Heidelberg).

The next experiment concerns the target T5, CYP2D6 (Homo sapiens, UniProt P10635).
T5 construct: purchased Becton Dickinson GmbH (Heidelberg)
In words: Inhibition of hepatic CYP enzymes: CYP2D6. The format is biochemical. The settings on record: read-out: CYP2D6 IC50 (mean ± SD).
Text: as §2

Another experiment deals with T6, CYP2B6 (Homo sapiens, UniProt P20813).
T6 construct: purchased Becton Dickinson GmbH (Heidelberg)
T6 sequence (P20813 1-491): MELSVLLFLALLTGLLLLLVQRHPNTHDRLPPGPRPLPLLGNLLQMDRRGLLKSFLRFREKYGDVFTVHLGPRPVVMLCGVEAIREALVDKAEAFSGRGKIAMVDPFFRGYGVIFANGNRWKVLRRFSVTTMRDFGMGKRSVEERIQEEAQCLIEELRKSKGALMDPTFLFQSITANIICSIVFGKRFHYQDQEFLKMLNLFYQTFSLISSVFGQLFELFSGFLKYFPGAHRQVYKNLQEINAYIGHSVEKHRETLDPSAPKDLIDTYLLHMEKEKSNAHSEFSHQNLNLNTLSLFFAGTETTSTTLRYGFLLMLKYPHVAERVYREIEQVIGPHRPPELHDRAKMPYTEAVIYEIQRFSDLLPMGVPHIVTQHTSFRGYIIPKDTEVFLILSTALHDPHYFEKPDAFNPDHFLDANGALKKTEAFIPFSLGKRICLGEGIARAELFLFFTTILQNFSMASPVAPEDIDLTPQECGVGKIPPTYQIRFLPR
In words: Inhibition of hepatic CYP enzymes: CYP2B6. Type of experiment: biochemical. The settings on record: read-out: CYP2B6 IC50 (mean ± SD).
Text: as §2

A further experiment deals with T7, CYP1A2 (Homo sapiens, UniProt P05177).
T7 construct: purchased Becton Dickinson GmbH (Heidelberg)
T7 sequence (P05177 1-516): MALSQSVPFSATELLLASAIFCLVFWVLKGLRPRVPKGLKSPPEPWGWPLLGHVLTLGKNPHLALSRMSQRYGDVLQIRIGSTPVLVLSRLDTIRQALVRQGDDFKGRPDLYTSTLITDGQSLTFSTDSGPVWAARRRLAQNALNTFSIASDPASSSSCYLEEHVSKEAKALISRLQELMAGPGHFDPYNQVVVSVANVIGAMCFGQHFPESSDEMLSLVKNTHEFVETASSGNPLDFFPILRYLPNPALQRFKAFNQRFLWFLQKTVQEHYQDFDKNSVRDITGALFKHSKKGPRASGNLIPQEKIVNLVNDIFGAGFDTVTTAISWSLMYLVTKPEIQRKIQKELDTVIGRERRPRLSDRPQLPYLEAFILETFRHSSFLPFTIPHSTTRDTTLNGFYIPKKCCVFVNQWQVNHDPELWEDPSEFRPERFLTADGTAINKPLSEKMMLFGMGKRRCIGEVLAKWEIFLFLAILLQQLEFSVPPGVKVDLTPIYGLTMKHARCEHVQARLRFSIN
In words: Inhibition of hepatic CYP enzymes: CYP1A2. Type of experiment: biochemical. The settings on record: read-out: CYP1A2 IC50 (mean ± SD).
Text: as §2

In another experiment the test system is estrogen receptor. The settings on record: cited from earlier work.

T5 sequence (P10635 whole entry): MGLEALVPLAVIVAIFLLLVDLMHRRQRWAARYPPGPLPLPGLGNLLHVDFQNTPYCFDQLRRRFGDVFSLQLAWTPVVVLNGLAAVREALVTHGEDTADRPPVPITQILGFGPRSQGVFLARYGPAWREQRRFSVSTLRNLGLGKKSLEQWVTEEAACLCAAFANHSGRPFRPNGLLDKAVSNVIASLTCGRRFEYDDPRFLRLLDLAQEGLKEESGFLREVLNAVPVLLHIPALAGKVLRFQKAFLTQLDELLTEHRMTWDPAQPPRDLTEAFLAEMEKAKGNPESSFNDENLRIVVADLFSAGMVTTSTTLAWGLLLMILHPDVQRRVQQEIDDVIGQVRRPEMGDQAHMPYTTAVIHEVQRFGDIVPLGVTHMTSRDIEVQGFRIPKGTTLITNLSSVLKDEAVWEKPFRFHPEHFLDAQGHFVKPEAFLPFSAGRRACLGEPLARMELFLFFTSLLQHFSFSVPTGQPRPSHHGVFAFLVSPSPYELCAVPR
T4 sequence (P33261 whole entry): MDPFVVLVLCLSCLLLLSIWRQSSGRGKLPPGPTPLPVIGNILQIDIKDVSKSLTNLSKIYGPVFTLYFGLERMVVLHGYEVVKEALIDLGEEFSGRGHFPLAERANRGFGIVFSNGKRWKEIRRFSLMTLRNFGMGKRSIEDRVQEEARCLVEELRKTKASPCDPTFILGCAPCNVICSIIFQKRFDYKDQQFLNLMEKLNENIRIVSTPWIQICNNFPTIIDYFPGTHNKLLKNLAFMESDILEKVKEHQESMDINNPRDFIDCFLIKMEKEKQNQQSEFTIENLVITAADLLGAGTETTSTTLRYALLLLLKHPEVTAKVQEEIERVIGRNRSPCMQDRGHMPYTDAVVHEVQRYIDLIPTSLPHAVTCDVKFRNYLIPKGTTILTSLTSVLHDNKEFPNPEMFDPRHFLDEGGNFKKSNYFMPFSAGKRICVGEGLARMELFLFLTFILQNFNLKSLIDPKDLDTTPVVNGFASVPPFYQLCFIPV

The term IC50 denotes the concentration at which inhibition is half-maximal. Take `Oc1cccc(-c2csc(-c3cccc(O)c3)n2)c1` [Compound 26, 3,3′-(1,3-Thiazole-2,4-diyl)diphenol]: the figures for the IC50 against 17β-HSD2 and against 17β-HSD1 were 2.22 µM and 0.41 µM, respectively. The “affinity for the estrogen receptor (in words)” value (shortened to “affinity”) on estrogen receptor α is “negligible”. Besides, the “Selectivity IC50 (17β-HSD2)/IC50 (17β-HSD1)” value at 17β-HSD1 (ratio of IC50 values) was 5.4.

With `Oc1ccc(-c2csc(-c3cccc(O)c3)n2)cc1` [Compound 23, 3-[4-(4-Hydroxyphenyl)-1,3-thiazole-2-yl]phenol], the “affinity” value at estrogen receptor α is recorded as “negligible”. Besides, the IC50 against 17β-HSD1 was determined as 0.32 µM.

Regarding `Oc1cccc(-c2cnc(-c3cccc(O)c3)s2)c1` [Compound 22, 3,3′-(1,3-thiazole-2,5-diyl)diphenol], the IC50 at 17β-HSD2 is 2.5 µM; on CYP2C19, 4.57 ± 0.05 µM; against 17β-HSD1, 0.28 µM; on CYP2D6 it was 7.76 ± 0.03 µM; on CYP2B6 it was 14.2 ± 0.44 µM; at CYP1A2, 4.92 ± 0.09 µM.

Broadly, the inhibition is the percentage by which the read-out fell short of the control. With `Oc1ccc(-c2nc(-c3cccc(O)c3)cs2)cc1` [Compound 24, 3-[2-(4-Hydroxyphenyl)-1,3-thiazole-4-yl]phenol], the “affinity” value on estrogen receptor α is “negligible”. Further, the inhibition at 1 µM on 17β-HSD1 (read-out: inhibition of 17β-HSD1 at 1 μM) was 49%.

Regarding `Oc1ccc(-c2csc(-c3ccc(O)cc3)n2)cc1` [Compound 25, 4,4′-(1,3-Thiazole-2,4-diyl)diphenol], the “RBA (%) (Katzenellenbogen patent)” value in the experiment with estrogen receptor is reported as 0.018%. The “inhibition of 17β-HSD1 (in words)” value on 17β-HSD1 was “no activity”. Besides, the “Inhibition of 17β-HSD1, IC50 (nM)” value on 17β-HSD1 (Table 6, isomeric bis(hydroxyphenyl)-1,3-thiazoles) is given as “no inhibition”.
